According to ChEMBL document CHEMBL3351635, “Novel nitro(triazole/imidazole)-based heteroarylamides/sulfonamides as potential antitrypanosomal agents” (Eur J Med Chem, 2014):

Columns and labels:
[1] = Selectivity index, ratio of IC50 for rat L6 cells to IC50 for trypomastigote forms of Trypanosoma cruzi Tulahuen C2C4 infected in rat L6 cells; assay type: toxicity, cell-based; conditions: read-out: Ratio IC50
L6 = assay: Cytotoxicity against rat L6 cells after 72 hrs by alamar blue assay; assay type: cell-based; conditions: L6, 72 h
[2] = Selectivity index, ratio of IC50 for rat L6 cells to IC50 for bloodstream forms of Trypanosoma brucei rhodesiense STIB 900; assay type: toxicity, cell-based; conditions: read-out: Ratio IC50
Trypanosoma cruzi [3] = assay: Antiparasitic activity against trypomastigote forms of Trypanosoma cruzi Tulahuen C2C4 infected in rat L6 cells assessed as inhibition of growth after 96 hrs by inverted microscopy; assay type: functional, organism-based; conditions: Tulahuen C2C4, L6, 96 h
Trypanosoma cruzi [4] = assay: Ratio of benznidazol IC50 to compound IC50 for trypomastigote forms of Trypanosoma cruzi Tulahuen C2C4 infected in rat L6 cells assessed as inhibition of growth after 96 hrs by inverted microscopy; assay type: functional
[5] = test system: Trypanosoma brucei brucei; assay: Ratio of IC50 for bloodstream forms of Trypanosoma brucei brucei Lister 427 clone 221a overexpressing type I nitroreductase in absence of tetracycline to IC50 for bloodstream forms of Trypanosoma brucei brucei Lister 427 clone 221a overexpressing type I nitroreductase in presence of tetracycline; assay type: functional
[6] = test system: Trypanosoma brucei brucei; assay: Trypanocidal activity against bloodstream forms of Trypanosoma brucei brucei Lister 427 clone 221a overexpressing type I nitroreductase assessed as inhibition of proliferation after 3 days by resazurin assay in absence of tetracycline; assay type: functional, organism-based; conditions: 72 h
[7] = Selectivity index, ratio of IC50 for rat L6 cells to IC50 for axenic amastigote forms of Leishmania donovani MHOM/ET/67/L82; assay type: toxicity, cell-based; conditions: read-out: Ratio IC50
[8] = test system: Trypanosoma brucei brucei; assay: Trypanocidal activity against bloodstream forms of Trypanosoma brucei brucei Lister 427 clone 221a overexpressing type I nitroreductase assessed as inhibition of proliferation after 3 days by resazurin assay in presence of tetracycline; assay type: functional, organism-based; conditions: 72 h
Leishmania donovani = assay: Antiparasitic activity against axenic amastigote forms of Leishmania donovani MHOM/ET/67/L82 assessed as inhibition of growth after 72 hrs by resazurin assay; assay type: functional, organism-based; conditions: MHOM/ET/67/L82, 72 h
[9] = test system: Trypanosoma brucei rhodesiense; assay: Antiparasitic activity against bloodstream forms of Trypanosoma brucei rhodesiense STIB 900 assessed as inhibition of growth after 72 hrs by resazurin assay; assay type: functional, organism-based; conditions: STIB 900, 72 h
[10] = test system: Trypanosoma brucei brucei; assay: Trypanocidal activity against wild type bloodstream forms of Trypanosoma brucei brucei Lister 427 clone 221a assessed as inhibition of proliferation after 3 days by resazurin assay; assay type: functional, organism-based; conditions: 72 h

Compound | selectivity ratio [1] | IC50 (L6) [µM] | selectivity ratio [2] | IC50 (Trypanosoma cruzi [3]) [µM] | Ratio IC50 (Trypanosoma cruzi [4]) | Ratio IC50 [5] | IC50 [6] [µM] | selectivity ratio [7] | IC50 [8] [µM] | IC50 (Leishmania donovani) [µM] | IC50 [9] [µM] | IC50 [10] [µM]
O=C(NCCCn1cnc([N+](=O)[O-])n1)c1ccc(C(F)(F)F)nc1 | > 84 | > 291 | > 82 | 3.46 | 0.5 | – | – | – | – | – | – | –
O=[N+]([O-])c1ncn(CCCCNS(=O)(=O)c2ccc(Cl)s2)n1 | 278 | 128 | 247 | 0.462 | 4.42 | 39.2 | 21.6 | 6 | 0.55 | 20 | 0.52 | 22.9
O=[N+]([O-])c1ncn(CCCNS(=O)(=O)c2cc(Cl)sc2Cl)n1 | 216 | 119 | 75 | 0.552 | 3.7 | 19.3 | 4.25 | 7 | 0.22 | 17.8 | 1.59 | 2.94
O=[N+]([O-])c1ncn(CCCNS(=O)(=O)c2cc(Cl)c(Cl)s2)n1 | 639 | 101 | 200 | 0.158 | 14.31 | 32.6 | 17 | 8 | 0.52 | 13.2 | 0.505 | 15.5
O=[N+]([O-])c1ncn(CCCCNS(=O)(=O)c2cc(Cl)c(Cl)s2)n1 | 261 | 97 | 447 | 0.373 | 6.07 | 2.4 | 0.46 | 9 | 0.19 | 10.6 | 0.218 | 0.61
O=[N+]([O-])c1nccn1CCCNS(=O)(=O)c1cc(Cl)sc1Cl | 15 | 108 | 3 | 6.99 | 0.32 | – | – | 8 | – | 13.1 | 40.3 | –
O=[N+]([O-])c1nccn1CCCNS(=O)(=O)c1cc(Cl)c(Cl)s1 | 16 | 75 | 2 | 4.75 | 0.48 | – | – | 10 | – | 7.35 | 32.7 | –
Cc1csc(C(=O)NCCCn2cnc([N+](=O)[O-])n2)c1 | 68 | 173 | 176 | 2.55 | 0.8 | 19.2 | 6.34 | 4 | 0.33 | 46.1 | 0.98 | 9.69
O=C(NCCCn1cnc([N+](=O)[O-])n1)c1ccsc1 | > 89 | > 356 | > 389 | 3.99 | 0.57 | 73 | 21.2 | > 5 | 0.29 | 71.2 | 0.915 | 26.8
O=C(NCCCCn1cnc([N+](=O)[O-])n1)c1ccsc1 | > 194 | > 339 | > 418 | 1.75 | 1.3 | 8 | 2.49 | > 12 | 0.31 | 27.7 | 0.81 | 3.02
Cc1cc(C(=O)NCCCn2cnc([N+](=O)[O-])n2)c(C)o1 | > 39 | > 341 | > 73 | 8.87 | 0.25 | – | – | > 3 | – | 132 | 4.71 | –
Cc1ccoc1C(=O)NCCCn1cnc([N+](=O)[O-])n1 | > 12 | > 358 | > 22 | 30.4 | 0.07 | – | – | > 3 | – | 139 | 16.4 | –
O=C(NCCCn1cnc([N+](=O)[O-])n1)c1cc2ccccc2s1 | 425 | 124 | 665 | 0.293 | 7.72 | 18.4 | 1.29 | 8 | 0.07 | 14.7 | 0.187 | > 0.93
O=C(NCCCCn1cnc([N+](=O)[O-])n1)c1sc2ccccc2c1Cl | > 1410 | > 264 | > 270 | 0.187 | 12.09 | 3 | 0.48 | > 23 | 0.16 | 11.5 | 0.978 | 0.44
O=C(NCCCCn1cnc([N+](=O)[O-])n1)c1nc2ccccc2s1 | 364 | 154 | 89 | 0.422 | 5.36 | 3.9 | 1.39 | 6 | 0.36 | 27.7 | 1.73 | 1.36
Cc1nc([N+](=O)[O-])cn1CCCNS(=O)(=O)c1ccc(Cl)s1 | 3 | 261 | 6 | 102 | 0.02 | – | – | – | – | – | 47.2 | –
Cc1nc([N+](=O)[O-])cn1CCCNC(=O)c1nc2ccccc2s1 | > 3 | > 290 | 2 | 105 | 0.01 | – | – | – | – | – | 173 | –
Cc1nc([N+](=O)[O-])cn1CCCNC(=O)c1sc2ccccc2c1Cl | 6 | 189 | 5 | 32.2 | 0.05 | – | – | – | – | – | 39.4 | –
O=C(Cn1ccnc1[N+](=O)[O-])NCc1ccccc1 [BENZNIDAZOLE] | – | – | – | 2.13 | – | 9.9 | – | – | – | – | – | –
Nc1nc(N)nc(Nc2ccc([As]3SCC(CO)S3)cc2)n1 (stereo unspecified) [MELARSOPROL] | – | – | – | – | – | 1 | – | – | – | – | – | 0.006
CCCCCCCCCCCCCCCCOP(=O)([O-])OCC[N+](C)(C)C [MILTEFOSINE] | – | – | – | – | – | – | – | – | – | 0.39 | – | –
CC1CS(=O)(=O)CCN1/N=C/c1ccc([N+](=O)[O-])o1 (stereo unspecified) [NIFURTIMOX] | – | – | – | – | – | 13.2 | – | – | – | – | – | –
